Laboratory results published in US11084847B2, “Polyamide compound and use thereof” (SICHUAN KELUN-BIOTECH BIOPHARMACEUTICAL CO., LTD., priority 2016, dated 2021).
pEC50, pIC50, pKi: −log10 of the molar value. Where two headings read alike, the source gives them in different places.

Columns and labels:
[1] = biological target: T1, human κ-opioid receptor (KOR) (Homo sapiens, UniProt P41145); test: κ-opioid receptor agonistic effect (inhibition of adenylate cyclase, cAMP assay); assay type: cell-based
T1 construct: expressed in transfected cells
Procedure: The efficacy of the compounds of the invention as κ-opioid receptor agonists was determined by measuring the ability of the compounds of Examples to inhibit adenylate cyclase activity.
Cell culture: hamster ovary cells CHO stably expressing human κ-opioid receptor (KOR) gene were cultured in MEMα plus nucleosides medium (Invitrogen) containing 5% FBS.
Stimulation: the test compound was 4-fold diluted in a gradient manner to obtain 11 concentrations, and 100 nl of each was transferred to a 384-well plate, and then a stimulating solution (5 uL) containing NKH477 (Tocris) was added; the cells were digested, re-suspended, and counted; and then the cells (5 uL) were added to wells, mixed gently, and incubated at 37° C. for 30 min.
Detection: cAMP Assay Kit (Cisbio) was used, cAMP-D2 and Anti-cAMP-Cryptate were added separately, and the resultant mixture was incubated for 1 h at room temperature. The plate was read using envision (Perkin Elmer) and EC50 was obtained by means of fitting with a four-parameter equation.

[2] = biological target: DOR (Homo sapiens, UniProt P41143); test: Opioid receptor selectivity, radioligand competition binding (3H-DADLE) on cell membranes
Procedure: (§1) The selectivity of the compounds of the invention for κ opioid receptors was determined by measuring the inhibitory effect of the compounds of Examples on the […] of KOR, MOR, and DOR.
(§2) The compounds of Examples at different concentrations were incubated with the cell membrane with high expression of KOR, MOR, DOR and the corresponding radioligand (KOR: 3H-diprenophrine; MOR: 3H-DAMGO; DOR: 3H-DADLE) for 1 h, the compounds of Examples competed with the radioligands for binding to KOR, MOR, DOR. After the incubation, Cell harvest was used to collect cell membranes onto a Unifilter-96 GF/C filter plate, and the unbound radioligands were washed away. The plate was placed in a 50-degree oven for 1 h, and finally the scintillation solution Microscint 20 cocktail was added and the isotope signal was detected by MicroBeta2 Reader.
(§3) According to the intensity of the isotope signal at different concentrations, the IC50 was calculated by means of fitting with a four-parameter equation, and the Ki value was calculated.
(§4) The Ki value was calculated according to the formula Ki=IC50/(1+[radioligand]/Kd), and Kd was the equilibrium dissociation constant of radioligand.

[3] = biological target: MOR (Homo sapiens, UniProt P35372); test: Opioid receptor selectivity, radioligand competition binding (3H-DAMGO) on cell membranes
Procedure: as §1, §2, §3, §4

[4] = biological target: KOR (Homo sapiens, UniProt P41145); test: Opioid receptor selectivity, radioligand competition binding (3H-diprenophrine) on cell membranes
Procedure: as §1, §2, §3, §4

[5] = system: male ICR mice; test: Acetic acid-induced writhing test in mice; assay type: in vivo; parameters: ED50: unit not given here; conditions: for ED50: iv administration 15 min before 0.6% acetic acid ip, writhes counted within 15 min
Procedure: The analgesic effect of the compound of the invention was evaluated by measuring the ED50 of the compounds of Examples in the acetic acid-induced writhing test in mice.
The commercial glacial acetic acid solution was diluted with physiological saline to 0.6% glacial acetic acid solution. The male ICR mice were randomly separated into the drug group and the model group (to which physiological saline was administration). 15 minutes after iv administration, 0.6% acetic acid solution was intraperitoneally injected at 10 ml/kg, and the mice was immediately recorded with DV camera for 15 min. After the recording, the number of writhes of the mice within 15 min was counted from the video by blind method, the inhibition rate for the writhes was calculated according to Formula (I), and the ED50 of the compound was calculated according to Formula (II).
(I) The inhibition rate for the writhes was calculated by the formula: Inhibition rate (%)=(the number of writhes in a model group−the number of writhes in a drug group)/the number of writhes in a model group*100.
(II) The ED50 was calculated by the formula:
[formula] wherein Xm was the logarithm of the highest dose, d was the difference in the logarithm of two adjacent doses, p was the inhibition rate for each dose group, pm was the highest-dose inhibition rate, and pn was the lowest-dose inhibition rate.

[6] = Pharmacokinetic (PK) study in rats; assay type: in vivo; conditions: male SD rats, intravenous, 1 mg/kg; for AUC(0-t) / Cmax / Vd / half-life: rat, plasma
Procedure: The pharmacokinetic profile of the compounds of Examples was studied by intravenous administration of the compounds of Examples to male SD rats. The dose for IV administration was 1 mg/kg, and the solvent was 5% DMSO: 5% solutol: 90% physiological saline. After IV administration, blood samples were collected at different time points for PK study. Plasma were treated by protein precipitation and then analyzed by LC-MS/MS.
In LC-MS/MS, mass spectrum was API 5500, and liquid chromatography was Shimadzu LC-30AD system. The column used for the test groups of Compound 3 and Compound 4 was Thermo C18 column (4.6 mm×100 mm, 3 μm); for mobile phases, phase A was water+0.1% formic acid, and phase B was methanol; the flow rate was 0.8 mL/min, and the column temperature was 40° C. The column used for the test group of Compound 5 was Agela AQ C18 column (2.1 mm×50 mm, 1.9 μm); for mobile phases, phase A was water+0.05% formic acid+5 mM acetic acid ammonium, and phase B was methanol+0.05% formic acid; the flow rate was 0.6 mL/min, and the column temperature was 40° C. The ion source used was the ESI source in positive ion mode, and the scanning mode was Multiple Reaction Monitoring (MRM).

[7] = CHO cells stably expressing human KOR, NKH477-stimulated cAMP, four-parameter fit, read-out: ED50 (the source's name)
[8] = Ki=IC50/(1+[radioligand]/Kd), read-out: DOR Ki
[9] = radioligand 3H-DADLE, 1 h incubation, read-out: DOR IC50
[10] = Ki=IC50/(1+[radioligand]/Kd), read-out: MOR Ki
[11] = radioligand 3H-DAMGO, 1 h incubation, read-out: MOR IC50
[12] = Ki=IC50/(1+[radioligand]/Kd), read-out: KOR Ki
[13] = radioligand 3H-diprenophrine, 1 h incubation, read-out: KOR IC50

SMILES	pEC50 [1, 7]	ED50 [5]	pharmacokinetic profile (in words) [6]	AUC(0-t) [6]	Cmax [6]	Vd [6]	half-life [6]	also measured
CC(C)C[C@@H](NC(=O)[C@@H](Cc1ccccc1)NC(=O)[C@H](N)Cc1ccccc1)C(=O)N[C@H](CCCCNCC(=O)O)C(=O)N1CCC(N)(C(=O)O)CC1 [Example 17, 4-amino-1-((R)-2-((R)-2-((R)-2-((R)-2-amino-3-phenylpropanamido)-3-phenylpropanamido)-4-methylpentanamido)-6-((carboxymethyl)amino)hexanoyl)piperidin-4-carboxylic acid]	9.38							
CC(C)C[C@@H](NC(=O)[C@@H](Cc1ccccc1)NC(=O)[C@H](N)Cc1ccccc1)C(=O)N[C@H](CCCCNC(CO)CO)C(=O)N1CCC(N)(C(=O)O)CC1 [Example 8, 4-amino-1-((R)-2-((R)-2-((R)-2-((R)-2-amino-3-phenylpropanamido)-3-phenylpropanamido)-4-methylpentanamido)-6-((1,3-dihydroxypropan-2-yl)amino)hexanoyl)piperidin-4-carboxylic acid]	10.52							
COCCOCCNCCCC[C@@H](NC(=O)[C@@H](CC(C)C)NC(=O)[C@@H](Cc1ccccc1)NC(=O)[C@H](N)Cc1ccccc1)C(=O)N1CCC2(CC1)NC(=O)NC2=O [Example 23, 8-((R)-2-((R)-2-((R)-2-((R)-2-amino-3-phenylpropanamido)-3-phenylpropanamido)-4-methylpentanamido)-6-(2-(methoxyethoxy)ethylamino)hexanoyl)-1,3,8-triaza-spiro[4.5]decane-2,4-dione]	10.80							
CC(C)C[C@@H](NC(=O)[C@@H](Cc1ccccc1)NC(=O)[C@H](N)Cc1ccccc1)C(=O)N[C@H](CCCCNCCN)C(=O)N1CCC(N)(C(=O)O)CC1 [Example 3, 4-amino-1-((R)-2-((R)-2-((R)-2-((R)-2-amino-3-phenylpropanamido)-3-phenylpropanamido)-4-methylpentanamido)-6-((2-aminoethyl)amino)hexanoyl)piperidin-4-carboxylic acid]	10.22	0.041	good exposure amount and Cmax	1790 ng·h/mL	2650 ng/mL	0.28 L/kg	20.4 min	pKi [2, 8]: < 4.92; pIC50 [2, 9]: < 4.70; pKi [3, 10]: < 5.14; pIC50 [3, 11]: < 4.70; pKi [4, 12]: > 11.00; pIC50 [4, 13]: > 10.52
CC(C)C[C@@H](NC(=O)[C@@H](Cc1ccccc1)NC(=O)[C@H](N)Cc1ccccc1)C(=O)N[C@H](CCCCNCCCN)C(=O)N1CCC(N)(C(=O)O)CC1 [Example 4, 4-amino-1-((R)-2-((R)-2-((R)-2-((R)-2-amino-3-phenylpropanamido)-3-phenylpropanamido)-4-methylpentanamido)-6-((3-aminopropyl)amino)hexanoyl)piperidin-4-carboxylic acid]	10.15	0.029	good exposure amount and Cmax	2410 ng·h/mL	3590 ng/mL	0.74 L/kg	73.2 min	pKi [2, 8]: < 4.92; pIC50 [2, 9]: < 4.70; pKi [3, 10]: < 5.14; pIC50 [3, 11]: < 4.70; pKi [4, 12]: > 11.00; pIC50 [4, 13]: > 10.52
COCCOCCNCCCC[C@@H](NC(=O)[C@@H](CC(C)C)NC(=O)[C@@H](Cc1ccccc1)NC(=O)[C@H](N)Cc1ccccc1)C(=O)N1C2CC1CN(CC(=O)O)C2 [Example 24, 2-(6-((R)-2-((R)-2-((R)-2-((R)-2-amino-3-phenylpropanamido)-3-phenylpropanamido)-4-methylpentanamido)-6-((2-(2-methoxyethoxy)ethyl)amino)hexanoyl)-3,6-diazabicyclo[3.1.1]heptan-3-yl)acetic acid]	11.30							
COCCOCCN(CCCC[C@@H](NC(=O)[C@@H](CC(C)C)NC(=O)[C@@H](Cc1ccccc1)NC(=O)[C@H](N)Cc1ccccc1)C(=O)N1CCC(N)(C(=O)O)CC1)CCOCCOC [Example 15, 4-amino-1-((R)-2-((R)-2-((R)-2-((R)-2-amino-3-phenylpropanamido)-3-phenylpropanamido)-4-methylpentanamido)-6-(di(2-(2-methoxyethoxy)ethyl)amino)hexanoyl)piperidin-4-carboxylic acid]	10.22							
CC(C)C[C@@H](NC(=O)[C@@H](Cc1ccccc1)NC(=O)[C@H](N)Cc1ccccc1)C(=O)N[C@H](CCCCNC[C@H](O)CO)C(=O)N1CCC(N)(C(=O)O)CC1 [Example 2, 4-amino-1-((R)-2-((R)-2-((R)-2-((R)-2-amino-3-phenylpropanamido)-3-phenylpropanamido)-4-methylpentanamido)-6-(((S)-2,3-dihydroxypropyl)amino)hexanoyl)piperidin-4-carboxylic acid]	10.10							
COCCOCCOCCOCCOCCOCCOCCNCCCC[C@@H](NC(=O)[C@@H](CC(C)C)NC(=O)[C@@H](Cc1ccccc1)NC(=O)[C@H](N)Cc1ccccc1)C(=O)N1CCC(N)(C(=O)O)CC1 [Example 6, 4-amino-1-((R)-28-((R)-2-((R)-2-((R)-2-amino-3-phenylpropanamido)-3-phenylpropanamido)-4-methylpentanamido)-2,5,8,11,14,17,20-heptaoxa-23-azanonacosan-29-oyl)piperidin-4-carboxylic acid]		0.036	good exposure amount and Cmax	2180 ng·h/mL	3660 ng/mL	0.2 L/kg	17.4 min	pEC50 [1]: 9.96; pIC50 [2]: < 4.70; pKi [2]: < 4.92; pIC50 [3]: < 4.70; pKi [3]: < 5.14; pIC50 [4]: 9.48; pKi [4]: 9.96; KOR selectivity (in words) ([4]; KOR versus MOR and DOR binding): excellent KOR selectivity; analgesic effect (in words) ([5]; acetic acid-induced writhing, mice, iv): significant analgesic effect
CC(C)C[C@@H](NC(=O)[C@@H](Cc1ccccc1)NC(=O)[C@H](N)Cc1ccccc1)C(=O)N[C@H](CCCCNC[C@@H](O)CO)C(=O)N1CCC(N)(C(=O)O)CC1 [Example 1, 4-amino-1-((R)-2-((R)-2-((R)-2-((R)-2-amino-3-phenylpropanamido)-3-phenylpropanamido)-4-methylpentanamido)-6-(((R)-2,3-dihydroxypropyl)amino)hexanoyl)piperidin-4-carboxylic acid]	10.05							
